Results from patent US20170150719A1, “FUNGICIDAL PYRAZOLES AND THEIR MIXTURES” (E I DU PONT DE NEMOURS AND COMPANY, priority 2010, published 2017).
Marks after values point to notes of the source that are not given here.

Tests used:
Botrytis cinerea = assay: Test A: tomato Botrytis, preventive spray on tomato seedlings, visual disease rating; conditions: 100 = 100% disease control; for Test A rating (% disease control) / Test A rating (disease control): tomato Botrytis; for Test A rating (% disease control): preventive spray, 0 = no control relative to controls, rating without asterisk; for Test A rating (disease control) / pest or weed control at 200 µg/mL: 0 = no disease control relative to the controls; for pest or weed control at 200 µg/mL: Botrytis cinerea, in Solanum lycopersicum, read-out: Test A rating (disease control), tomato Botrytis
Method: General protocol for preparing test suspensions for Tests A-I: the test compounds were first dissolved in acetone in an amount equal to 3% of the final volume and then suspended at the desired concentration (in ppm) in acetone and purified water (50/50 mix by volume) containing 250 ppm of the surfactant Trem® 014 (polyhydric alcohol esters). The resulting test suspensions were then used in Tests A-I. Each test was conducted in triplicate, and the results were averaged. Spraying a 200 ppm test suspension to the point of run-off on the test plants was the equivalent of a rate of about 800 g/ha. Unless otherwise indicated, the rating values indicate a 200 ppm test suspension was used. (An asterisk “*” next to the rating value indicates a 40 ppm test suspension was used.)
The test suspension was sprayed to the point of run-off on tomato seedlings. The following day the seedlings were inoculated with a spore suspension of Botrytis cinerea (the causal agent of tomato Botrytis) and incubated in saturated atmosphere at 20° C. for 48 h, and then moved to a growth chamber at 24° C. for 3 additional days, after which time visual disease ratings were made.

[1] = system: Puccinia recondita f. sp. tritici; assay: Test G: wheat leaf rust, spray after inoculation (curative) on wheat seedlings, visual disease rating; format: in vivo; conditions: 100 = 100% disease control; for Test G rating (% disease control): spray after inoculation, rating without asterisk; for Test G rating (disease control) / pest or weed control at 200 µg/mL: sprayed after inoculation, 0 = no disease control
From the text: (§1) A hyphen (-) indicates no test results.

Septoria tritici = assay: Test F: wheat leaf blotch, preventive spray on wheat seedlings, visual disease rating; format: in vivo; design: Test F rating (disease control), value marked *: concentration or dose not given beside the values; conditions: for Test F rating (% disease control): preventive spray, rating without asterisk; for Test F rating (% disease control) / Test F rating (disease control) / pest or weed control at 200 µg/mL: 100 = 100% disease control; for Test F rating (disease control) / pest or weed control at 200 µg/mL: 0 = no disease control relative to the controls; for pest or weed control at 200 µg/mL: Zymoseptoria tritici
From the text: as §1

[2] = system: Puccinia recondita f. sp. tritici; assay: Test H: wheat leaf rust, preventive spray on wheat seedlings, visual disease rating; conditions: 100 = 100% disease control; for Test H rating (% disease control) / Test H rating (disease control): wheat leaf rust; for Test H rating (% disease control): preventive spray, rating without asterisk; for Test H rating (disease control): sprayed the day before inoculation; for Test H rating (disease control) / pest or weed control at 200 µg/mL: 0 = no disease control; for pest or weed control at 200 µg/mL: read-out: Test H rating (disease control), wheat leaf rust, sprayed the day before inoculation
[3] = system: Blumeria graminis f. sp. tritici; assay: Test I: wheat powdery mildew, preventive spray on wheat seedlings, visual disease rating; conditions: 100 = 100% disease control; for Test I rating (% disease control) / Test I rating (disease control): wheat powdery mildew; for Test I rating (% disease control): preventive spray, rating without asterisk; for Test I rating (disease control) / pest or weed control at 200 µg/mL: 0 = no disease control relative to the controls; for pest or weed control at 200 µg/mL: Blumeria graminis, in Triticum aestivum, read-out: Test I rating (disease control), wheat powdery mildew
Alternaria solani = assay: Test B: tomato early blight, preventive spray on tomato seedlings, visual disease rating; conditions: for Test B rating (% disease control) / Test B rating (disease control): tomato early blight, 100 = 100% disease control; for Test B rating (% disease control): preventive spray, rating without asterisk; for Test B rating (disease control): 0 = no disease control relative to the controls; for pest or weed control at 200 µg/mL: Alternaria solani, in Solanum lycopersicum, read-out: Test B rating (disease control)
Septoria nodorum = assay: Test E: Septoria glume blotch, preventive spray on wheat seedlings, visual disease rating; conditions: 100 = 100% disease control; for Test E rating (% disease control): Septoria glume blotch on wheat, preventive spray, rating without asterisk; for Test E rating (disease control): Septoria glume blotch; for Test E rating (disease control) / pest or weed control at 200 µg/mL: 0 = no disease control relative to the controls; for pest or weed control at 200 µg/mL: Parastagonospora nodorum, in Triticum aestivum, read-out: Test E rating (disease control), Septoria glume blotch

SMILES | Test A rating (% disease control) (Botrytis cinerea) [%] | Test G rating (% disease control) [1] [%] | Test F rating (% disease control) (Septoria tritici) [%] | Test H rating (% disease control) [2] [%] | Test I rating (% disease control) [3] [%] | Test B rating (% disease control) (Alternaria solani) [%] | Test E rating (% disease control) (Septoria nodorum) [%] | Test A rating (disease control) (Botrytis cinerea) [%] | Test G rating (disease control) [1] [%] | Test F rating (disease control) (Septoria tritici) [%] | Test H rating (disease control) [2] [%] | Test I rating (disease control) [3] [%] | Test B rating (disease control) (Alternaria solani) [%] | Test E rating (disease control) (Septoria nodorum) [%] | also measured
COc1ccc(-c2c(C)nn(C)c2Nc2c(Cl)cc(F)cc2Cl)c(Cl)c1 [compound 205] | 59 | 0 | 100 | 99 | 21 | 31 | 0 |  |  |  |  |  |  |  | 
COc1ccc(-c2c(C)nn(C)c2Nc2c(F)cc(F)cc2F)c(Cl)c1 [compound 29] |  |  |  |  |  |  |  | 100 | 99 | 99 | 99 | 100 | 99 | 97 | 
Cc1nn(C)c(Oc2ccc(C#N)cc2Cl)c1-c1c(F)cc(F)cc1F [compound 28] |  |  |  |  |  |  |  | 100 | 26 | 100 | 99 | 99 | 17 | 69 | 
COc1ccc(-c2c(C)nn(C)c2Nc2c(F)cc(Cl)cc2F)c(Cl)c1 [compound 204] | 99 | 99 | 100 | 100 | 100 | 99 | 99 |  |  |  |  |  |  |  | 
COc1cc(F)c(Nc2c(-c3c(F)cc(C#N)cc3F)c(C)nn2C)c(F)c1 [compound 36] |  |  |  |  |  |  |  | 99 | 0 | 99 | 41 | 0 | 0 | 0 | 
Cc1nn(C)c(Nc2c(F)cc(F)cc2I)c1-c1ccc(F)cc1Br [compound 215] | 100 | 100 | 100 | 100 | 100 | 100 | 99 |  |  |  |  |  |  |  | 
Cc1nn(C)c(Nc2c(F)cc(Br)cc2Br)c1-c1ccc(F)cc1F [compound 211] | 98 | 82 | 100 | 100 | 100 | 99 | 99 |  |  |  |  |  |  |  | 
Cc1nn(C)c(Nc2ccc(F)cc2Cl)c1-c1ccc(Cl)cc1Cl [compound 125] |  |  |  |  |  |  |  | 99 | 82 | 100 | 98 | 100 | 0 | 0 | 
Cc1nn(C)c(Nc2c(F)cc(F)cc2F)c1-c1ccc(Cl)cc1Cl [compound 18] |  |  |  |  |  |  |  | 100 | 95 | 99 | 99 | 97 | 98 | 98 | 
Cc1nn(C)c(Nc2c(F)cc(Cl)cc2Cl)c1-c1ccc(F)cc1I [compound 222] | 98 | 0 | 100 | 90 | 96 | 77 | 0 |  |  |  |  |  |  |  | 
Cc1nn(C)c(Nc2ccc(Br)cc2Br)c1-c1ccc(F)cc1F [compound 184] | 100 | 0 | 100 | 98 | 100 | 58 | 60 |  |  |  |  |  |  |  | 
Cc1nn(C)c(Nc2ccc(F)cc2Cl)c1-c1c(F)cc(C#N)cc1F [compound 31] |  |  |  |  |  |  |  | 100 | 53 | 99 | 100 | 100 | 98 | 99 | 
Cc1nn(C)c(Nc2c(Cl)cc(F)cc2Cl)c1-c1ccc(Cl)cc1Cl [compound 132] |  |  |  |  |  |  |  | 93 | 0 | 99 | 96 | 43 | 0 | 0 | 
Cc1nn(C)c(Nc2ccc(F)cc2Br)c1-c1ccc(F)cc1Cl [Compound 73, N-(2-bromo-4-fluorophenyl)-4-(2-chloro-4-fluorophenyl)-1,3-dimethyl-1H-pyrazol-5-amine] |  |  |  |  |  |  |  |  |  |  |  |  |  |  | pest or weed control at 200 µg/mL (Botrytis cinerea): 100%; pest or weed control at 200 µg/mL [1]: 90%; pest or weed control at 200 µg/mL (Septoria tritici): 100%; pest or weed control at 200 µg/mL [2]: 100%; pest or weed control at 200 µg/mL [3]: 100%; pest or weed control at 200 µg/mL (Alternaria solani): 99%; pest or weed control at 200 µg/mL (Septoria nodorum): 78%
Cc1nn(C)c(Nc2ccc(F)cc2Br)c1-c1c(Cl)cccc1Cl [compound 114] |  |  |  |  |  |  |  | 99 | 0 | 100 | 91 | 100 | 0 | 0 | 
Cc1nn(C)c(Nc2c(F)cc(Cl)cc2F)c1-c1ccc(C#N)cc1Cl [Compound 111, 3-chloro-4-[5-[(4-chloro-2,6-difluorophenyl)amino]-1,3-dimethyl-1H-pyrazol-4-yl]benzonitrile] |  |  |  |  |  |  |  |  |  |  |  |  |  |  | pest or weed control at 200 µg/mL (Botrytis cinerea): 100%; pest or weed control at 200 µg/mL [1]: 94%; pest or weed control at 200 µg/mL (Septoria tritici): 100%; pest or weed control at 200 µg/mL [2]: 100%; pest or weed control at 200 µg/mL [3]: 99%; pest or weed control at 200 µg/mL (Alternaria solani): 97%; pest or weed control at 200 µg/mL (Septoria nodorum): 95%
CCOc1ccc(-c2c(C)nn(C)c2Nc2ccc(F)cc2F)c(Cl)c1 [compound 209] | 98 | 0 | 100 | 92 | 100 | 95 | 0 |  |  |  |  |  |  |  | 
Cc1nn(C)c(Nc2c(F)cccc2F)c1-c1ccc(F)cc1F [compound 71] |  |  |  |  |  |  |  | 99 | 0 | 100 | 99 | 100 | 99 | 96 | 
Cc1nn(C)c(Nc2c(F)cc(F)cc2Cl)c1-c1ccc(F)cc1F [Compound 117, N-(2-chloro-4,6-difluorophenyl)-4-(2,4-difluorophenyl)-1,3-dimethyl-1H-pyrazol-5-amine] |  |  |  |  |  |  |  |  |  |  |  |  |  |  | pest or weed control at 200 µg/mL (Botrytis cinerea): 100%; pest or weed control at 200 µg/mL [1]: 91%; pest or weed control at 200 µg/mL (Septoria tritici): 100%; pest or weed control at 200 µg/mL [2]: 100%; pest or weed control at 200 µg/mL [3]: 100%; pest or weed control at 200 µg/mL (Alternaria solani): 100%; pest or weed control at 200 µg/mL (Septoria nodorum): 97%
COc1ccc(-c2c(C)nn(C)c2Nc2ccc(Cl)cc2Cl)c(Cl)c1 [compound 77] |  |  |  |  |  |  |  | 99 | 0 |  | 99 | 100 | 98 | 0 | Test F rating (disease control), value marked * (Septoria tritici; rating marked with asterisk (*), other test condition, not explained in the text shown): 99* %
COc1cc(F)c(Nc2c(-c3c(F)cc(F)cc3F)c(C)nn2C)c(F)c1 [compound 19] |  |  |  |  |  |  |  | 99 | 0 | 98 | 89 | 91 | 82 | 0 | 
